Data taken from patent US10774051B2, “6-membered heterocyclic derivatives and pharmaceutical composition comprising the same” (Shionogi & Co., Ltd., priority 2015, dated 2020).

Each molecule was assayed against human P2X7 receptor (Homo sapiens, UniProt Q99572, R270H/Y155H) (assay: Evaluation of human P2X7 receptor inhibitory activity (Yo-Pro uptake, BzATP stimulation, FLIPR TETRA)). Details: 1321N1 cells stably expressing human P2X7 receptor; BzATP stimulation, Yo-Pro uptake; read-out: IC50 (antagonistic activity for the human P2X7 receptor).
Assay type: cell-based
Summary of the method: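 Yo-Pro dye uptake triggered by BzATP was monitored by FLIPR in human P2X7-transfected 1321N1 cells (SNP variant) in HEPES-buffered HBSS, pH 7.4-7.5. Compound was dispensed 8 min post-stimulation, then signal read for 20 min; IC50 derived logistically from inhibition of the fluorescence range.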
With `C=Cc1ccccc1Nc1nc(=O)c(F)cn1Cc1cc(F)c(F)c(F)c1` [Compound I-1188] the IC50 was 0.004 µM.

Same assay, conditions: antagonistic activity for the human P2X7 receptor; read-out: IC50
Work on `COCc1cn(Cc2cc(F)c(F)c(F)c2)c(Nc2cc3c(cc2C)COC3)nc1=O` [Compound I-1126] yielded an IC50 of 0.01 to 0.1 µM.
For `Cc1cc2c(cc1Nc1nc(=O)c(CCO)cn1Cc1cc(F)c(F)c(F)c1)COC2` [Compound I-1127], the IC50 was 0.01 to 0.1 µM.
Molecule `COc1ccc(C)c(Nc2nc(=O)c(C(=O)O)cn2Cc2cc(F)c(F)c(F)c2)c1` [Compound I-1128] has an IC50 of 0.01 to 0.1 µM.
Molecule `COCc1cn(Cc2cc(F)c(F)c(F)c2)c(Nc2cc(-c3ncco3)ccc2C)nc1=O` [Compound I-1129] has an IC50 of 0.01 to 0.1 µM.
With `Cc1cc2c(cc1Nc1nc(=O)c(C#N)cn1Cc1cc(F)c(F)c(F)c1)COC2` [Compound I-1130] the IC50 was 0.01 to 0.1 µM.
`COCc1cn(Cc2cc(F)c(F)c(F)c2)c(Nc2cc(-c3nnco3)ccc2C)nc1=O` [Compound I-1131] showed an IC50 of 0.01 to 0.1 µM.
`Cc1cc(N2CCOCC2)ccc1Nc1nc(=O)c(C)cn1Cc1cc(F)c(F)c(F)c1` [Compound I-1132] gave an IC50 of 0.01 to 0.1 µM.
`COc1cc(F)c(Nc2nc(=O)c(C)cn2Cc2cc(F)c(F)c(F)c2)cc1OC` [Compound I-1133] was tested, and the IC50 was 0.01 to 0.1 µM.
For `Cc1ccc(S(C)(=O)=O)cc1Nc1nc(=O)ccn1Cc1cc(F)c(F)c(F)c1` [Compound I-1134], the IC50 was 0.01 to 0.1 µM.
Molecule `COc1cc(C)c(Nc2nc(=O)c(C)c(C)n2Cc2cc(F)cc(F)c2)cc1OC` [Compound I-1135] has an IC50 of 0.01 to 0.1 µM.
Work on `Cc1nc2cc(C)c(Nc3nc(=O)cc(C)n3Cc3cc(F)c(F)c(F)c3)cc2s1` [Compound I-1136] yielded an IC50 of 0.01 to 0.1 µM.
Molecule `Cc1cc(F)c(-c2cccn(C)c2=O)cc1Nc1nc(=O)ccn1Cc1cc(F)c(F)c(F)c1` [Compound I-1137] has an IC50 of 0.01 to 0.1 µM.
Molecule `COCc1cn(Cc2cc(F)c(F)c(F)c2)c(Nc2cc(OC)ccc2C)nc1=O` [Compound I-1138] has an IC50 of 0.01 to 0.1 µM.
In the case of `COc1cc(Cl)c(Nc2nc(=O)c(C)cn2Cc2cc(F)c(F)c(F)c2)cc1OC` [Compound I-1139], the IC50 is reported as 0.01 to 0.1 µM.
`COCc1cn(Cc2cc(F)c(F)c(F)c2)c(Nc2ccc(OC)cc2C)nc1=O` [Compound I-1140] gave an IC50 of 0.01 to 0.1 µM.
`COCc1cn(Cc2cc(F)c(F)c(F)c2)c(Nc2cc3sc(C)nc3cc2C)nc1=O` [Compound I-1141] was tested, and the IC50 was 0.01 to 0.1 µM.
Molecule `COCc1cc(=O)nc(Nc2cc(OC)c(OC)cc2C)n1Cc1cc(F)cc(F)c1` [Compound I-1142] has an IC50 of 0.01 to 0.1 µM.
Molecule `Cc1ccc(-c2cccn(C)c2=O)cc1Nc1nc(=O)c(C)cn1Cc1cc(F)c(F)c(F)c1` [Compound I-1143] has an IC50 of 0.01 to 0.1 µM.
Work on `COCc1cn(Cc2cc(F)c(F)c(F)c2)c(Nc2cc(OC)c(OC)cc2C)nc1=O` [Compound I-1144] yielded an IC50 of 0.01 to 0.1 µM.
Work on `Cc1ccc(OCCO)cc1Nc1nc(=O)c(C)cn1Cc1cc(F)c(F)c(F)c1` [Compound I-1145] yielded an IC50 of 0.01 to 0.1 µM.
In the case of `COCc1cn(Cc2cc(F)c(F)c(F)c2)c(Nc2cc(Cl)c(OC)cc2C)nc1=O` [Compound I-1146], the IC50 is reported as 0.01 to 0.1 µM.
Molecule `COCc1cc(=O)nc(Nc2cc(OC)c(OC)cc2C)n1Cc1cc(F)c(F)c(F)c1` [Compound I-1147] has an IC50 of 0.01 to 0.1 µM.
For `Cc1cc(F)c(-c2cccn(C)c2=O)cc1Nc1nc(=O)c(C)cn1Cc1cc(F)c(F)c(F)c1` [Compound I-1148], the IC50 was 0.01 to 0.1 µM.
With `Cc1cc(N2CCOCC2)ccc1Nc1nc(=O)ccn1Cc1cc(F)c(F)c(F)c1` [Compound I-1149] the IC50 was 0.01 to 0.1 µM.
Work on `COc1cc(C)c(Nc2nc(=O)ccn2Cc2cc(F)c(F)c(F)c2)cc1OC` [Compound I-1150] yielded an IC50 of 0.01 to 0.1 µM.
With `COc1ccc(C)c(Nc2nc(=O)c(C#N)cn2Cc2cc(F)c(F)c(F)c2)c1` [Compound I-1151] the IC50 was 0.01 to 0.1 µM.
`COCc1cn(Cc2cc(F)c(F)c(F)c2)c(Nc2cc(CO)ccc2C)nc1=O` [Compound I-1152] was tested, and the IC50 was less than 0.01 µM.
`COc1cc(C)c(Nc2nc(=O)c(C)cn2Cc2cc(F)c(F)c(F)c2)cc1OC` [Compound I-1153] was tested, and the IC50 was less than 0.01 µM.
Work on `COc1ccc(Nc2nc(=O)c(C)cn2Cc2cc(F)c(F)c(F)c2)c(C)c1` [Compound I-1154] yielded an IC50 of less than 0.01 µM.
`COCc1cn(Cc2cc(F)c(F)c(F)c2)c(Nc2cc(C)cc3[nH]ccc23)nc1=O` [Compound I-1155] gave an IC50 of less than 0.01 µM.
With `COCc1cn(Cc2cc(F)c(F)c(F)c2)c(Nc2cc(C)c(OC)cc2C)nc1=O` [Compound I-1156] the IC50 was less than 0.01 µM.
With `Cc1ccc(-c2nnco2)cc1Nc1nc(=O)c(Cl)cn1Cc1cc(F)c(F)c(F)c1` [Compound I-1157] the IC50 was less than 0.01 µM.
Work on `COc1cc(C)c(Nc2nc(=O)c(C(N)=O)cn2Cc2ccc(F)c(F)c2)cc1C` [Compound I-1158] yielded an IC50 of less than 0.01 µM.
For `COc1cc(C)c(Nc2nc(=O)ccn2Cc2ccc(F)c(Cl)c2)cc1OC` [Compound I-1159], the IC50 was less than 0.01 µM.
`COc1cc(C)c(Nc2nc(=O)c(C#N)cn2Cc2ccc(F)c(F)c2)cc1C` [Compound I-1160] gave an IC50 of less than 0.01 µM.
In the case of `Cc1cc(Nc2nc(=O)ccn2Cc2cc(F)c(F)c(F)c2)c2cc[nH]c2c1` [Compound I-1161], the IC50 is reported as less than 0.01 µM.
`O=C1CCCc2c(Nc3nc(=O)c(Cl)cn3Cc3cc(F)c(F)c(F)c3)cccc21` [Compound I-1162] was tested, and the IC50 was less than 0.01 µM.
`COCc1cn(Cc2cc(F)c(F)c(F)c2)c(Nc2ccc3[nH]ccc3c2C)nc1=O` [Compound I-1163] was tested, and the IC50 was less than 0.01 µM.
Molecule `Cc1cn(Cc2cc(F)cc(F)c2)c(Nc2ccc3[nH]ccc3c2C)nc1=O` [Compound I-1164] has an IC50 of less than 0.01 µM.
In the case of `Cc1cn(Cc2cc(F)c(F)c(F)c2)c(Nc2ccc3[nH]ccc3c2C)nc1=O` [Compound I-1165], the IC50 is reported as less than 0.01 µM.
With `COc1cc(Nc2nc(=O)ccn2Cc2ccc(F)c(Cl)c2)c(C)c(OC)c1` [Compound I-1166] the IC50 was less than 0.01 µM.
Molecule `COc1ccc(Nc2nc(=O)cc(C)n2Cc2cc(F)c(F)c(F)c2)c(C)c1` [Compound I-1167] has an IC50 of less than 0.01 µM.
`Cc1cn(Cc2ccc(F)c(F)c2)c(Nc2ccc3[nH]ccc3c2C)nc1=O` [Compound I-1168] gave an IC50 of less than 0.01 µM.
Work on `Cc1c(Nc2nc(=O)ccn2Cc2cc(F)c(F)c(F)c2)ccc2[nH]ccc12` [Compound I-1169] yielded an IC50 of less than 0.01 µM.
Molecule `Cc1c(Nc2nc(=O)ccn2Cc2ccc(F)c(Cl)c2)ccc2[nH]ccc12` [Compound I-1170] has an IC50 of less than 0.01 µM.
For `Cc1c(Nc2nc(=O)ccn2Cc2cc(F)cc(F)c2)ccc2[nH]ccc12` [Compound I-1171], the IC50 was less than 0.01 µM.
`O=c1nc(Nc2cccc3c2CCCO3)n(Cc2cc(F)c(F)c(F)c2)cc1F` [Compound I-1173] was tested, and the IC50 was less than 0.01 µM.
In the case of `COc1cc(C)c(Nc2nc(=O)c(F)cn2Cc2cc(F)cc(F)c2)cc1Cl` [Compound I-1174], the IC50 is reported as less than 0.01 µM.
`COc1cc(C)c(Nc2nc(=O)c(F)cn2Cc2cc(F)c(F)c(F)c2)cc1Cl` [Compound I-1175] showed an IC50 of less than 0.01 µM.
`CCc1ccccc1Nc1nc(=O)c(F)cn1Cc1cc(F)c(F)c(F)c1` [Compound I-1176] was tested, and the IC50 was less than 0.01 µM.
`Cc1c(CO)cccc1Nc1nc(=O)c(F)cn1Cc1cc(F)c(F)c(F)c1` [Compound I-1177] was tested, and the IC50 was less than 0.01 µM.
For `COCc1cccc(Nc2nc(=O)c(F)cn2Cc2cc(F)c(F)c(F)c2)c1C` [Compound I-1178], the IC50 was less than 0.01 µM.
In the case of `COCCOc1ccc(C)c(Nc2nc(=O)c(F)cn2Cc2cc(F)c(F)c(F)c2)c1` [Compound I-1179], the IC50 is reported as less than 0.01 µM.
Work on `COc1cc(C)c(Nc2nc(=O)c(F)cn2Cc2cc(F)c(F)c(F)c2)cc1C` [Compound I-1180] yielded an IC50 of less than 0.01 µM.
`Cc1c(F)cccc1Nc1nc(=O)c(F)cn1Cc1cc(F)c(F)c(F)c1` [Compound I-1181] was tested, and the IC50 was less than 0.01 µM.
`Cc1nc2cc(Cl)c(Nc3nc(=O)c(F)cn3Cc3cc(F)c(F)c(F)c3)cc2s1` [Compound I-1182] was tested, and the IC50 was less than 0.01 µM.
`Cc1nc2cc(C)c(Nc3nc(=O)c(F)cn3Cc3cc(F)c(F)c(F)c3)cc2o1` [Compound I-1183] was tested, and the IC50 was less than 0.01 µM.
`Cc1ccc(Nc2nc(=O)c(F)cn2Cc2cc(F)c(F)c(F)c2)c(Cl)c1` [Compound I-1184] gave an IC50 of less than 0.01 µM.
Molecule `Cc1cccc(Nc2nc(=O)c(F)cn2Cc2cc(F)c(F)c(F)c2)c1F` [Compound I-1185] has an IC50 of less than 0.01 µM.
`COc1ccc(Nc2nc(=O)c(F)cn2Cc2cc(F)c(F)c(F)c2)c(Cl)c1` [Compound I-1186] was tested, and the IC50 was less than 0.01 µM.
With `COc1cc(Cl)c(Nc2nc(=O)c(F)cn2Cc2cc(F)c(F)c(F)c2)cc1OC` [Compound I-1187] the IC50 was less than 0.01 µM.
With `Cc1cccc(Nc2nc(=O)c(F)cn2Cc2cc(F)c(F)c(F)c2)c1C` [Compound I-1189] the IC50 was less than 0.01 µM.
`CCc1ccc(Cl)cc1Nc1nc(=O)c(F)cn1Cc1cc(F)c(F)c(F)c1` [Compound I-1190] was tested, and the IC50 was less than 0.01 µM.
`CCc1ccc(OC)cc1Nc1nc(=O)c(F)cn1Cc1cc(F)c(F)c(F)c1` [Compound I-1191] showed an IC50 of less than 0.01 µM.
With `Cc1cc(Cl)ccc1Nc1nc(=O)c(F)cn1Cc1cc(F)c(F)c(F)c1` [Compound I-1192] the IC50 was less than 0.01 µM.
Molecule `Cc1ccc(Nc2nc(=O)c(F)cn2Cc2cc(F)c(F)c(F)c2)c(C)c1` [Compound I-1193] has an IC50 of less than 0.01 µM.
`Cc1ccc(C)c(Nc2nc(=O)c(F)cn2Cc2cc(F)c(F)c(F)c2)c1` [Compound I-1194] gave an IC50 of less than 0.01 µM.
With `Cc1ccc(Cl)c(Nc2nc(=O)c(F)cn2Cc2cc(F)c(F)c(F)c2)c1` [Compound I-1195] the IC50 was less than 0.01 µM.
`COc1ccc(Cl)c(Nc2nc(=O)c(F)cn2Cc2cc(F)c(F)c(F)c2)c1` [Compound I-1196] gave an IC50 of less than 0.01 µM.
`CCc1cc(OC)ccc1Nc1nc(=O)c(F)cn1Cc1cc(F)c(F)c(F)c1` [Compound I-1197] was tested, and the IC50 was less than 0.01 µM.
With `Cc1nc2ccc(Nc3nc(=O)c(F)cn3Cc3cc(F)cc(F)c3)c(C)c2s1` [Compound I-1198] the IC50 was less than 0.01 µM.
`Cc1nc2ccc(Nc3nc(=O)c(F)cn3Cc3cc(F)c(F)c(F)c3)c(C)c2s1` [Compound I-1199] was tested, and the IC50 was less than 0.01 µM.
In the case of `Cc1cc(C)c(Nc2nc(=O)c(F)cn2Cc2cc(F)c(F)c(F)c2)cc1C` [Compound I-1200], the IC50 is reported as less than 0.01 µM.
`CCOc1cc(C)c(Nc2nc(=O)c(F)cn2Cc2cc(F)c(F)c(F)c2)cc1C` [Compound I-1201] showed an IC50 of less than 0.01 µM.
With `Cc1c(Nc2nc(=O)c(F)cn2Cc2cc(F)cc(F)c2)ccc2scnc12` [Compound I-1202] the IC50 was less than 0.01 µM.
Work on `Cc1c(Nc2nc(=O)c(F)cn2Cc2cc(F)c(F)c(F)c2)ccc2scnc12` [Compound I-1203] yielded an IC50 of less than 0.01 µM.
